Source: patent US5610161A, “Therapeutic agents” (The Boots Company PLC, priority 1992, dated 1997)
Where a name gives a salt, the structure may show the parent alone. Read-outs that look alike come from different tables or passages of the source.

Assays:
[1] = system: reserpine-induced fall in body temperature; test: Test 1: reversal of reserpine-induced hypothermia in mice, oral; type: in vivo, mice (Charles River CD1 strain, male); conditions: for ED50: Mus musculus, read-out: Test 1 ED50 (dose causing 50% reversal of the reserpine-induced fall in body temperature)
Protocol: Male mice of the Charles River CD1 strain weighing between 18 and 30 g were separated into groups of five and were supplied with food and water ad libitum. After five hours the body temperature of each mouse was taken orally and the mice were injected intraperitoneally with reserpine (10 mg/kg) in solution in deionised water containing ascorbic acid (50 mg/ml). The amount of liquid injected was 10 ml/kg of body weight. Nine hours after the start of the test food was withdrawn but water was still available ad libitum. Twenty-four hours after the start of the test the temperatures of the mice were taken and the mice were given the test compound orally at a dose volume of 10 ml/kg of body weight. The compound was administered in aqueous solution. Three hours later the temperatures of all the mice were again taken. The percentage reversal of the reserpine-induced fall in body temperature was then calculated by the formula: [formula] The percentage reversal value for each group of five mice was determined at more than one dose rate to enable a value of the dose which causes a 50% reversal (ED50) to be obtained.

reserpine-induced ptosis = test: Test 2: prevention of reserpine-induced ptosis (eye closure) in rats, oral; type: in vivo, rats (Charles River CD strain, male); conditions: for ED50: Rattus norvegicus, read-out: Test 2 ED50 (dose causing 50% prevention of the reserpine-induced ptosis)
Description: Male rats of the Charles River CD strain weighing between 140 and 180 g were randomly separated into five rats in each cage and supplied with food and water ad libitum. Eighteen hours prior to initiation of the test four of the five rats were marked with a pen such that each rat was individually identifiable; food was then withdrawn. The following morning, two hours before the test, the rats were weighed and a semi-randomised code was used to allocate treatments to rats. The test commenced by orally administering either:
a) the test compound in solution in deionised water at a dose volume of 10 ml/kg of body weight, followed by immediate intravenous injection of 1 ml/kg of body weight of reserpine (0.75 mg/kg) in solution in deionised water containing 238 mM citric acid, 1.02% v/v Tween 80 and 0.2% v/v benzyl alcohol (treated group);
b) deionised water at a dose volume of 10 ml/kg of body weight, followed by immediate intravenous injection of 1 ml/kg of body weight of reserpine (0.75 mg/kg) in solution in deionised water containing 238 mM citric acid, 1.02% v/v Tween 80 and 0.2% v/v benzyl alcohol (positive control group); or
c) deionised water at a dose volume of 10 ml/kg of body weight, followed by immediate intravenous injection of 1 ml/kg of body weight of deionised water containing 238 mM citric acid, 1.02% v/v Tween 80 and 0.2% v/v benzyl alcohol (negative control group).
The degree of prosis was scored 45 seconds and 75 seconds later using the following observer rating system: 0=eye fully open, 1=eye 1/4 closed, 2=eye 1/2 closed, 3=eye 3/4 closed, 4=eye fully closed. A mean ptosis score was then calculated for all identically treated rats usually comprising a group of eight rats. […] The mean ptosis score for each group of treated rats was determined at more than one dose of test compound to enable a value for the dose (ED50) which causes a 50% prevention of the reserpine-induced ptosis to be obtained.

[2] = mice, oral, reserpine 10 mg/kg i.p., temperature 3 h after compound
[3] = rats, oral, reserpine 0.75 mg/kg i.v., ptosis scored 3 h later

## CCN1CCCC(O)(c2ccc(Cl)cc2)C12CCCCC2.Cl (centres unmarked) [Example 4, 5-(4-chlorophenyl)-1-ethyl-5-hydroxy-1-azaspiro[5.5]undecane hydrochloride]
[1]; [2]
  Test 1 ED50 (dose causing 50% reversal of the reserpine-induced fall in body temperature): Inactive @ 30
reserpine-induced ptosis; [3]
  ED50: 2.2 mg/kg

## OC1(c2cccc(Cl)c2)CCCNC12CCCCC2 (centres unmarked) [Example 2, 5-(3-chlorophenyl)-5-hydroxy-1-azaspiro[5.5]undecane]
[1]; [2]
  ED50: ~16 mg/kg
reserpine-induced ptosis; [3]
  ED50: 8.1 mg/kg

## CN1CCC=C(c2ccc(Cl)cc2)C12CCCCC2.Cl [Example 14, 5-(4-chlorophenyl)-1-methyl-1-azaspiro[5.5]undec-4-ene hydrochloride]
[1]; [2]
  ED50: ~12 mg/kg
reserpine-induced ptosis; [3]
  ED50: 30 mg/kg

## COc1ccc(C2CCCNC23CCCCC3)cc1.Cl (centres unmarked) [Example 19, 5-(4-methoxyphenyl)-1-azaspiro[5.5]undecane hydrochloride]
[1]; [2]
  ED50: ~14 mg/kg
reserpine-induced ptosis; [3]
  ED50: 5.8 mg/kg

## OC1(c2ccc(Cl)c(Cl)c2)CCCNC12CCCCC2 (centres unmarked) [Example 3, 5-(3,4-dichlorophenyl)-5-hydroxy-1-azaspiro[5.5]undecane]
[1]; [2]
  ED50: 10.7 mg/kg
reserpine-induced ptosis; [3]
  ED50: 7.7 mg/kg

## Cl.Clc1ccc(C2=CCCNC23CCCCC3)cc1Cl [Example 9, 5-(3,4-dichlorophenyl)-1-azaspiro[5.5]undec-4-ene hydrochloride]
[1]; [2]
  ED50: ~11 mg/kg
reserpine-induced ptosis; [3]
  ED50: 3.9 mg/kg

## Clc1ccc(C2=CCCNC23CCCC3)cc1.O=S(=O)(O)O [Example 17, 10-(4-chlorophenyl)-6-azaspiro[4.5]dec-9-ene sulphate]
[1]; po, 3 h
  ED50: ~23 mg/kg
reserpine-induced ptosis; po, 3 h
  ED50: 3.1 mg/kg

## Clc1ccc(C2=CCCNC23CCCCC3)cc1.O=C(O)/C=C/C(=O)O [Example 15, 5-(4-chlorophenyl)-1-azaspiro[5.5]undec-4-ene fumarate]
[1]; [2]
  ED50: 6.9 mg/kg
reserpine-induced ptosis; [3]
  ED50: 3.8 mg/kg

## COCCN1CCC=C(c2ccc(Cl)cc2)C12CCCCC2 [Example 22, 5-(4-chlorophenyl)-1-(2-methoxyethyl)-1-azaspiro[5.5]undec-4-ene 1.25 hydrochloride]
[1]; [2]
  ED50: ~30 mg/kg
reserpine-induced ptosis; [3]
  ED50: 10.1 mg/kg

## Clc1ccc(C2=CCCNC23CCCCC3)cc1 [Example 6, 5-(4-chlorophenyl)-1-azaspiro[5.5]undec-4-ene 0.5 sulphate, 2.1 hydrate]
[1]; [2]
  ED50: 14.1 mg/kg
reserpine-induced ptosis; [3]
  ED50: 2.7 mg/kg

## C=CCN1CCC=C(c2ccc(Cl)cc2)C12CCCCC2.O=C(O)/C=C\C(=O)O [Example 21, 1-allyl-5-(4-chlorophenyl)-1-azaspiro[5.5]undec-4-ene maleate]
[1]; [2]
  Test 1 ED50 (dose causing 50% reversal of the reserpine-induced fall in body temperature): Inactive @ 30
reserpine-induced ptosis; [3]
  ED50: 9.1 mg/kg

## Fc1ccc(C2=CCCNC23CCCCC3)cc1.O=S(=O)(O)O [Example 10, 5-(4-fluorophenyl)-1-azaspiro[5.5]undec-4-ene sulphate]
[1]; po, 3 h
  ED50: ~18 mg/kg
reserpine-induced ptosis; po, 3 h
  ED50: 8.5 mg/kg

## Cl.Clc1ccc(C2=CCNC23CCCCC3)cc1 [Example 26, 4-(4-chlorophenyl)-1-azaspiro[4.5]dec-3-ene hydrochloride]
[1]; [2]
  Test 1 ED50 (dose causing 50% reversal of the reserpine-induced fall in body temperature): Inactive @ 30
reserpine-induced ptosis; [3]
  ED50: 5.6 mg/kg

## Cl.Clc1cccc(C2=CCCNC23CCCCC3)c1 [Example 8, 5-(3-chlorophenyl)-1-azaspiro[5.5]undec-4-ene hydrochloride]
[1]; po, 3 h
  ED50: 16.4 mg/kg
reserpine-induced ptosis; po, 3 h
  ED50: 5.1 mg/kg

## Cl.Clc1ccc(C2CCCNC23CCCCC3)cc1 (centres unmarked) [Example 18, 5-(4-chlorophenyl)-1-azaspiro[5.5]undecane hydrochloride]
[1]; [2]
  ED50: 4.8 mg/kg
reserpine-induced ptosis; [3]
  ED50: 0.5 mg/kg

## Cl.FC(F)(F)c1cccc(C2=CCCNC23CCCCC3)c1 [Example 11, 5-[3-(trifluoromethyl)phenyl]-1-azaspiro[5.5]undec-4-ene hydrochloride]
[1]; [2]
  ED50: ~22 mg/kg
reserpine-induced ptosis; [3]
  Test 2 ED50 (dose causing 50% prevention of the reserpine-induced ptosis): Inactive @ 30

## OC1(c2ccc(Cl)cc2)CCCNC12CCCCC2 (centres unmarked) [Example 1, 5-(4-chlorophenyl)-5-hydroxy-1-azaspiro[5.5]undecane]
[1]; [2]
  Test 1 ED50 (dose causing 50% reversal of the reserpine-induced fall in body temperature): Inactive @ 30
reserpine-induced ptosis; [3]
  ED50: 11.3 mg/kg

## Cl.Oc1ccc(C2=CCCNC23CCCCC3)cc1 [Example 13, 5-(4-hydroxyphenyl)-1-azaspiro[5.5]undec-4-ene hydrochloride]
[1]; [2]
  Test 1 ED50 (dose causing 50% reversal of the reserpine-induced fall in body temperature): Inactive @ 30
reserpine-induced ptosis; [3]
  ED50: 21.8 mg/kg

## CS(=O)(=O)O.Clc1ccc(C2=CCCNC23CCCCC3)cc1 [Example 16, 5-(4-chlorophenyl)-1-azaspiro[5.5]undec-4-ene methanesulphonate]
[1]; [2]
  ED50: 9.4 mg/kg
reserpine-induced ptosis; [3]
  ED50: 3.3 mg/kg

## Clc1ccc(C2=CCCNC23CCCCC3)cc1.O=S(=O)(O)O [Example 5, 5-(4-chlorophenyl)-1-azaspiro[5.5]undec-4-ene sulphate]
[1]; po, 3 h
  ED50: ~20 mg/kg
reserpine-induced ptosis; po, 3 h
  ED50: 7 mg/kg

## Cl.Clc1ccc(C2=CCCNC23CCCCC3)cc1 [Example 7, 5-(4-chlorophenyl)-1-azaspiro[5.5]undec-4-ene hydrochloride]
[1]; [2]
  ED50: 2 mg/kg
reserpine-induced ptosis; [3]
  ED50: 1.4 mg/kg

## CCCN1CCC=C(c2ccc(Cl)cc2)C12CCCCC2 [Example 20, 5-(4-chlorophenyl)-1-propyl-1-azaspiro[5.5]undec-4-enehydrochloride]
[1]; [2]
  ED50: ~26 mg/kg
reserpine-induced ptosis; [3]
  ED50: 3 mg/kg

## C1=C(c2ccccc2)C2(CCCCC2)NCC1.Cl [Example 24, 5-phenyl-1-azaspiro[5.5]undec-4-ene hydrochloride]
[1]; [2]
  ED50: ~11.5 mg/kg
reserpine-induced ptosis; [3]
  Test 2 ED50 (dose causing 50% prevention of the reserpine-induced ptosis): Inactive @ 30

## C1=C(c2ccc(-c3ccccc3)cc2)C2(CCCCC2)NCC1.Cl [Example 25, 5-(4-biphenylyl)-1-azaspiro[5.5]undec-4-ene hydrochloride]
[1]; [2]
  Test 1 ED50 (dose causing 50% reversal of the reserpine-induced fall in body temperature): Inactive @ 30
reserpine-induced ptosis; [3]
  ED50: 9.9 mg/kg

## C1=C(c2ccc3ccccc3c2)C2(CCCCC2)NCC1.Cl [Example 12, 5-(2-naphthyl)-1-azaspiro[5.5]undec-4-ene hydrochloride]
[1]; [2]
  ED50: 11.9 mg/kg
reserpine-induced ptosis; [3]
  ED50: 11.9 mg/kg
